Reference: ChEMBL document CHEMBL6083219, “Rationally designed febuxostat-based hydroxamic acid and its pH-Responsive nanoformulation elicits anti-tumor activity” (Eur J Med Chem, 2024)
Calls of active or inactive are those of the source. No cut-off for these calls is given here.

How the values were obtained:
[1] = biological target: Xanthine dehydrogenase/oxidase (Bos taurus, UniProt P80457); test: Inhibition of bovine milk xanthine oxidase
MDA-MB-231 = test: cells; conditions: Homo sapiens, MDA-MB-231, 48 h
Description: Cytotoxicity against human MDA-MB-231 cells incubated for 48 hrs by MTT assay

HL-60 [2] = type: functional, cell-based; conditions: Homo sapiens, HL-60, 48 h
NCI-H1975 = type: functional, cell-based; conditions: Homo sapiens, NCI-H1975, 48 h
Rattus norvegicus [3] = test: Anti-hyperuricemic activity against potassium oxonate-induced hyperuricemia Wistar rat model assessed as decrease in serum creatinine level at 10 mg/kg measured after 14 days; type: functional, organism-based; conditions: time 14.0 day
Rattus norvegicus [4] = test: Anti-hyperuricemic activity against potassium oxonate-induced hyperuricemia Wistar rat model assessed as decrease in blood urea level at 10 mg/kg measured after 14 days; type: functional, organism-based; conditions: time 14.0 day
Rattus norvegicus [5] = test: Anti-hyperuricemic activity against potassium oxonate-induced hyperuricemia Wistar rat model assessed as decrease in serum uric acid level at 10 mg/kg measured after 14 days; type: functional, organism-based; conditions: time 14.0 day
HL-60 [6] = test: Downregulation of mTOR expression level in human HL-60 cells at 0.5 to 2 uM by Western blotting analysis; type: functional, cell-based; conditions: dose 0.5-2 µM

Xanthine dehydrogenase/oxidase, sequence (P80457 whole entry): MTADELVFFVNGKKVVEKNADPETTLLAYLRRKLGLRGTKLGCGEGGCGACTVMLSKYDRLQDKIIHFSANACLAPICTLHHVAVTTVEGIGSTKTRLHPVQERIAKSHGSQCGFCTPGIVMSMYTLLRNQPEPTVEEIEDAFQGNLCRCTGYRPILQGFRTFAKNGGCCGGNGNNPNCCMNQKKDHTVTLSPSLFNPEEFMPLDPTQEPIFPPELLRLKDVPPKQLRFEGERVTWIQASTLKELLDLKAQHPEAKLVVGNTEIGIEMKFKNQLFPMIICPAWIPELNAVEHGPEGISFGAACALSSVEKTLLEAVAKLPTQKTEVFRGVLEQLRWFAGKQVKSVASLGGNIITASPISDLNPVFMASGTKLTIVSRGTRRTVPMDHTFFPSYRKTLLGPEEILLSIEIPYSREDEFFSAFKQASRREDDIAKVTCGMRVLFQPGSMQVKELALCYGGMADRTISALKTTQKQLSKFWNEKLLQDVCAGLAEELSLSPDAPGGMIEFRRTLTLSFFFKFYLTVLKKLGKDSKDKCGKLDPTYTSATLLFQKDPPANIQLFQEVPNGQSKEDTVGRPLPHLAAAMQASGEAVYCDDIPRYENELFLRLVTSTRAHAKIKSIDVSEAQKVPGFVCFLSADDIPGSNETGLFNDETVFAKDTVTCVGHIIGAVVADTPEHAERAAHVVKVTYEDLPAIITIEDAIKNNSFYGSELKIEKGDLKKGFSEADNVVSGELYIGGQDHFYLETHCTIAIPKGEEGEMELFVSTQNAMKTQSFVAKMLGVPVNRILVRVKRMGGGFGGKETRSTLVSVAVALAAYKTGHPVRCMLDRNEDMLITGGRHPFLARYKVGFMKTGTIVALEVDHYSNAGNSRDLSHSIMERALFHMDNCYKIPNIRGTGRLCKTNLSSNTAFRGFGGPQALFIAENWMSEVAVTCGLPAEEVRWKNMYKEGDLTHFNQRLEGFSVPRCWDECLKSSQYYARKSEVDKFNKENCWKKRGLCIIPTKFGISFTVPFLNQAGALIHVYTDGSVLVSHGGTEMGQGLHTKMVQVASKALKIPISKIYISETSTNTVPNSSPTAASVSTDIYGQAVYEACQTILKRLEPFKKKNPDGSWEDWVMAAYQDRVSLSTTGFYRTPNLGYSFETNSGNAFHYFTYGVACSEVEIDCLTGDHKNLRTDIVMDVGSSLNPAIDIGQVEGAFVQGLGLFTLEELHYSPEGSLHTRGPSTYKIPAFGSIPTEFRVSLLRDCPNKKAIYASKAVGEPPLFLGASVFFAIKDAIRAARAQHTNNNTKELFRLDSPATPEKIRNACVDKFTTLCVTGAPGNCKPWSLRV

| Compound | IC50 [1] [µM] | IC50 (MDA-MB-231) [µM] | IC50 (HL-60 [2]) [µM] | IC50 (NCI-H1975) [µM] | Activity (Rattus norvegicus [3]) | Activity (Rattus norvegicus [4]) | Activity (Rattus norvegicus [5]) | Activity (HL-60 [6]) |
| --- | --- | --- | --- | --- | --- | --- | --- | --- |
| Cc1nc(-c2ccc(OCC(C)C)c(C#N)c2)sc1C(=O)NCc1ccc(NC(=O)CCCCCCC(=O)NO)cc1 | > 2 | 12.4 | 3.42 | 12.6 | – | – | – | – |
| Cc1nc(-c2ccc(OCC(C)C)c(C#N)c2)sc1C(=O)NCc1ccc(NC(=O)CCCCCC(=O)Nc2ccccc2N)cc1 | > 2 | 19.6 | 11.8 | 28.3 | – | – | – | – |
| Cc1nc(-c2ccc(OCC(C)C)c(C#N)c2)sc1C(=O)O [FEBUXOSTAT] | – | > 100 | > 100 | > 100 | Active | Active | Active | – |
| Cc1nc(-c2ccc(OCC(C)C)c(C#N)c2)sc1C(=O)NCCCCCCC(=O)Nc1ccccc1N | 0.85 | 41.1 | 1.54 | > 50 | – | – | – | – |
| Cc1nc(-c2ccc(OCC(C)C)c(C#N)c2)sc1C(=O)NCc1ccc(NC(=O)CCCCCC(=O)NO)cc1 | > 2 | > 50 | 18 | > 50 | – | – | – | – |
| O=C(CCCCCCC(=O)Nc1ccccc1)NO | – | – | – | – | – | – | – | Active |
| Cc1nc(-c2ccc(OCC(C)C)c(C#N)c2)sc1C(=O)NCc1ccc(C(=O)NCCCCCCC(=O)Nc2ccccc2N)cc1 | > 2 | > 50 | 0.696 | > 50 | – | – | – | – |
| Cc1nc(-c2ccc(OCC(C)C)c(C#N)c2)sc1C(=O)NCc1ccc(NC(=O)CCCCCCCCC(=O)NO)cc1 | > 2 | > 50 | 3.04 | 8.61 | – | – | – | – |
| Cc1nc(-c2ccc(OCC(C)C)c(C#N)c2)sc1C(=O)Nc1ccccc1N | 0.076 | > 50 | 1.26 | > 50 | – | – | – | – |
| Cc1nc(-c2ccc(OCC(C)C)c(C#N)c2)sc1C(=O)NO | 0.0033 | > 50 | 10.6 | > 50 | – | – | – | – |
| Cc1nc(-c2ccc(OCC(C)C)c(C#N)c2)sc1C(=O)NCc1ccc(NC(=O)CCCCCCCC(=O)NO)cc1 | > 2 | 31.5 | > 50 | 18.7 | – | – | – | – |

Now from value to compound, other results behind:

| IC50 [1] [µM] | IC50 (MDA-MB-231) [µM] | IC50 (HL-60 [2]) [µM] | IC50 (NCI-H1975) [µM] | Compound | Activity (Rattus norvegicus [3]) | Activity (Rattus norvegicus [4]) | Activity (Rattus norvegicus [5]) | Activity (HL-60 [6]) |
| --- | --- | --- | --- | --- | --- | --- | --- | --- |
| 0.7 | 7.08 | 1.71 | 18.2 | Cc1nc(-c2ccc(OCC(C)C)c(C#N)c2)sc1C(=O)NCCCCCC(=O)Nc1ccccc1N | – | – | – | – |
| > 2 | 5.55 | 1.58 | 9.36 | Cc1nc(-c2ccc(OCC(C)C)c(C#N)c2)sc1C(=O)NCc1ccc(NC(=O)CCCCCCC(=O)Nc2ccccc2N)cc1 | – | – | – | – |
| > 2 | 3.81 | 1.64 | 11.2 | Cc1nc(-c2ccc(OCC(C)C)c(C#N)c2)sc1C(=O)NCc1ccc(NC(=O)CCCCCCCC(=O)Nc2ccccc2N)cc1 | – | – | – | – |
| > 2 | 9.63 | 1.01 | 18.3 | Cc1nc(-c2ccc(OCC(C)C)c(C#N)c2)sc1C(=O)NCc1ccc(C(=O)Nc2ccccc2N)cc1 | – | – | – | – |
| > 2 | 3.38 | 4.25 | 28.8 | Cc1nc(-c2ccc(OCC(C)C)c(C#N)c2)sc1C(=O)NCc1ccc(NC(=O)CCCCCCCCC(=O)Nc2ccccc2N)cc1 | – | – | – | – |
| 0.021 | 4.09 | 0.805 | 11.4 | Cc1nc(-c2ccc(OCC(C)C)c(C#N)c2)sc1C(=O)NCc1ccc(C(=O)NO)cc1 | – | – | – | – |
| > 2 | 9.9 | 0.56 | > 50 | Cc1nc(-c2ccc(OCC(C)C)c(C#N)c2)sc1C(=O)NCc1ccc(C(=O)NCCCCCCC(=O)NO)cc1 | – | – | – | – |
| 0.0062 | 6.35 | 1.29 | 6.77 | Cc1nc(-c2ccc(OCC(C)C)c(C#N)c2)sc1C(=O)NCCCCCC(=O)NO | – | – | – | – |
